The results in this text go back to patent US5502166A, “NMDH receptor proteins and genes encoding the same” (Mitsubishi Chemical Corporation, priority 1992, dated 1996).

The structures appear in SMILES notation. Read-outs that look alike come from different tables or passages of the source.

Assay [1] addresses T1, ε2/.zeta.1 heteromeric NMDA receptor channel (Mus musculus, UniProt P35438+Q01097).
T1 construct: expressed in transfected cells; host or cells: Xenopus oocytes injected with in vitro transcribed mRNAs
The assay is described as follows: Electrophysiological test in Xenopus oocytes expressing ε2 and .zeta.1 subunits. Type of assay: cell-based. The following applies: for response to kainate / AMPA: 100 μM. The procedure:
(§1) Then, by using the pBKSA ε2 cut by NotI and the pBKSA ε3 cut by XbaI as molds and using T3 RNA polymerase produced by BRL Co., ε2-specific mRNAs and ε3-specific mRNAs were synthesized in vitro. Transcription was carried out in the same manner as in Example 1.
(§2) Effects of the competitive antagonist were examined with 10-fold concentration of the antagonist concentration used when examining the EC50 values.
Transcription was carried out in the same manner as in Example 1.

In assay [2] the target is T2, ε1/.zeta.1 heteromeric NMDA receptor channel (Mus musculus, UniProt P35436+P35438).
T2 construct: expressed in transfected cells; host or cells: Xenopus oocytes injected with in vitro transcribed mRNAs
The assay is described as follows: Electrophysiological test (micropipet voltage clamp) in Xenopus oocytes expressing ε1 and .zeta.1 subunits. Type of assay: cell-based.
Source text: as §2

The test system of a further assay is ε2 subunit. The assay is described as follows: Electrophysiological test in Xenopus oocytes expressing only the ε2 subunit. It counts as cell-based, mouse. The following applies: ε2 mRNA alone.
The subject of the next assay is ε3 subunit. The assay is described as follows: Electrophysiological test in Xenopus oocytes expressing only the ε3 subunit. Type of assay: cell-based, mouse. The conditions noted are these: ε3 mRNA alone.
In assay [3] the target is ε3/.zeta.1 heteromeric NMDA receptor channel (Mus musculus, UniProt P35438+Q01098). The experiment in a line: Electrophysiological test in Xenopus oocytes expressing ε3 and .zeta.1 subunits. Type of assay: cell-based. The following applies: for response to kainate / AMPA: 100 μM. The procedure: as §1, §2
Assay [4] has as its system ε2/.zeta.1-N598Q NMDA receptor channel. The assay is described as follows: Electrophysiological test in Xenopus oocytes expressing modified ε2/.zeta.1-N598Q channel. Type of assay: cell-based, mouse. From the text:
(§3) In the figures, FIGS. 4(a), 4(b), 4(c) and 4(d) represent an ε2/.zeta.1 NMDA receptor channel, an ε2/.zeta.1-N598Q (a modified glutamate receptor shown in Sequence ID No. 9 of the sequence table) NMDA receptor channel, an ε2-N589Q (a modified glutamate receptor shown in Sequence ID No. 8 of the sequence table)/.zeta.l NMDA receptor channel and an ε2-N589Q/.zeta.1-N598Q NMDA receptor channel, respectively.
(§4) FIGS. 5(a) to 5(d) show current-voltage relationships of wild type and mutant heteromeric channels in the presence of 1 mM Mg^2+ ( ) and in the absence thereof (.smallcircle.). In the figures, FIGS. 5(a) , 5(b) , 5(c) and 5(d) represent an ε2/.zeta.1 NMDA receptor channel, an ε2/.zeta.1-N598Q NMDA receptor channel, an ε2-N589Q/.zeta.1 NMDA receptor channel and an ε2-N589Q/.zeta.1-N598Q NMDA receptor channel, respectively.
(§5) In the figure, .largecircle., , , .quadrature. and represent an ε2/.zeta.1 NMDA receptor channel, an ε2/.zeta.1-N598Q NMDA receptor channel, an ε2-N589Q/.zeta.1 NMDA receptor channel, an ε2-N589Q/.zeta.1-N598Q NMDA receptor channel and an ε2/.zeta.1-ZAZ (a mutant glutamate receptor shown in Sequence ID No. 10 of the sequence table) NMDA receptor channel, respectively. […]

Assay [5] concerns ε2-N589Q/.zeta.1 NMDA receptor channel. The assay is described as follows: Electrophysiological test in Xenopus oocytes expressing modified ε2-N589Q/.zeta.1 channel. Type of assay: cell-based, mouse.
Source text: as §3, §4, §5

Assay [6] relates to ε2-N589Q/.zeta.1-N598Q NMDA receptor channel. The assay is described as follows: Electrophysiological test in Xenopus oocytes expressing modified ε2-N589Q/.zeta.1-N598Q channel. Type of assay: cell-based, mouse.
Source text: as §3, §4, §5

Assay [7] concerns the target ε4/.zeta.1 heteromeric NMDA receptor channel (Mus musculus, UniProt P35438+Q03391). The experiment in a line: Electrophysiological test in Xenopus oocytes expressing ε4 and .zeta.1 subunits. Type of assay: cell-based. The procedure:
FIGS. 1(a) and 1(b) show functional expression of ε4/.zeta.1 heteromeric NMDA receptor channel cDNAs in frog oocytes. Current responses are measured at -70 mV membrane potential in normal Ringer's solution. […] FIG. 1(b) represent effects of 500 μM D-2-amino-5-phosphonovalerate (APV) (Glu/Gly +APV) and 100 μM 7-chlorokynurenate (7 CK) (Glu/Gly +7 CK) on a current response of the ε4/.zeta.1 heteromeric channel to Glu/Gly, respectively.
Current responses are measured at -70 mV membrane potential in a Ba^2+ -Ringer's solution.
Then, by using the pSPGR ε4 plasmid cut by EcoRI as a template and using SP6 RNA polymerase, ε4-specific mRNAs were synthesized in vitro. Transcription was carried out in the same manner as in Example 1.

Assay [8] concerns ε1/.xi.1, ε2/.xi.1 and ε3/.xi.1 heteromeric NMDA receptor channels. The assay is described as follows: Comparison of ε1/, ε2/ and ε3/.xi.1 heteromeric channels in Xenopus oocytes. The conditions noted are these: 10-fold concentration used when examining EC50. Type of assay: cell-based, mouse.
Source text: as §2

Assay [9] has as its system ε1/.xi.1, ε2/.xi.1, ε3/.xi.1 and ε4/.xi.1 heteromeric NMDA receptor channels. The assay is described as follows: Comparison of ε1/, ε2/, ε3/ and ε4/.xi.1 heteromeric channels in Xenopus oocytes. It counts as cell-based, mouse.
Procedure: (§6) The oocytes used were obtained from mature female Xenopus and separated into one oocyte in a Barth medium by using sharp tweezers and scissors. The concentration of the mRNAs was 0.1 μg/μl and 10 μl thereof was injected into about 100 oocytes in an amount of 50 to 100 nl per one oocyte. The mRNAs were injected under a microscope by using a capillary and a micromanipulator. After the injection, the oocytes were incubated at 19° C. for one day in a Barth medium containing 0.1 mg/ml of gentamicin ("The Control of Gene Expression in Animal Development, Clarendon, Oxford (1974)). Then, the oocytes were allowed to stand in 1 mg/ml of collagenase at room temperature for 1 hour, and then extracellular skins were removed under a microscope by using sharp tweezers. These oocytes were returned to the Barth medium containing 0.1 mg/ml of gentamicin, incubated again at 19° C. for one day and then used for an electrophysiological test.
(§7) The electrophysiological test was carried out by a conventional micropipet voltage clamp method. […] In the present experiment system, flow of these ions were detected, and opening and closing of the ion channel were observed. […]
A further assay concerns ε1 subunit. The assay is described as follows: Electrophysiological test in Xenopus oocytes expressing only the ε1 subunit. Type of assay: cell-based, mouse. The following applies: 10 μM L-glutamate and 100 μM NMDA, even in the presence of 10 μM glycine.
For assay [10], the target named is .zeta.1 NMDA type receptor subunit (Mus musculus, UniProt P35438). The experiment in a line: Electrophysiological test in Xenopus oocytes expressing only the .zeta.1 subunit. The following applies: 100 μM NMDA and 10 μM glycine, n=7.
Procedure: Then, by using the pBKSA ε1 cut by NotI as a template and using T3 RNA polymerase produced by BRL Co., ε1-specific mRNAs were synthesized in vitro. Transcription was carried out in a solution containing ATP, TTP and CTP at a concentration of 0.5 mM, respectively and 0.1 mM GTP in the presence of 0.5 mM dinucleotide 7mGpppG having a cap structure (in which 2 Gs were linked at 5' and 7-site of one guanine was methylated, produced by P-L Biochemicals Co.). One or both of ε1 subunit-specific mRNAs and .zeta.1.NMDA type glutamate receptor subunit-specific mRNAs (mRNAs derived from mice, coding an amino acid sequence different in the 213rd (Glu→Asp) and the 460th (Ile→Val) from the N terminal end from the amino acid sequence which is coded by cDNA.-NMDA R1 of a rat-NMDA type glutamate receptor cloned by Nakanishi et al. ("Nature", 354, pp. 31 to 37 (1991))) were injected into Xenopus oocytes.
as §6
The electrophysiological test was carried out by a conventional micropipet voltage clamp method. […] First, while a frog standard Ringer's solution (115 mM NaCl, 2.5 mM KCl, 1.8 mM CaCl2 and 10 mM HEPES-NaOH (pH: 7.2)) was flown in a chamber, 2 glass microelectrodes charged with 3M KCl were stuck in the oocytes, and the membrane potential was fixed to -70 mV. In these oocytes, an agonist (NMDA) is linked to a glutamate receptor expressed on a cell membrane and an ion channel is opened, the oocytes have an action of returning membrane potential to an original value, whereby inflow and outflow of ions are caused. In the present experiment system, flow of these ions were detected, and opening and closing of the ion channel were observed.
The ε1 subunit-specific mRNAs synthesized from the cloned cDNAs in vitro were injected into the Xenopus oocytes. […]
Setting [11] is: (+)-MK-801, continuous application.
The mark [12] stands for this setting: Ba^2+ Ringer's solution, dose-reaction curve.

T2 sequence (P35436 23-1464 S384R, other chains not shown): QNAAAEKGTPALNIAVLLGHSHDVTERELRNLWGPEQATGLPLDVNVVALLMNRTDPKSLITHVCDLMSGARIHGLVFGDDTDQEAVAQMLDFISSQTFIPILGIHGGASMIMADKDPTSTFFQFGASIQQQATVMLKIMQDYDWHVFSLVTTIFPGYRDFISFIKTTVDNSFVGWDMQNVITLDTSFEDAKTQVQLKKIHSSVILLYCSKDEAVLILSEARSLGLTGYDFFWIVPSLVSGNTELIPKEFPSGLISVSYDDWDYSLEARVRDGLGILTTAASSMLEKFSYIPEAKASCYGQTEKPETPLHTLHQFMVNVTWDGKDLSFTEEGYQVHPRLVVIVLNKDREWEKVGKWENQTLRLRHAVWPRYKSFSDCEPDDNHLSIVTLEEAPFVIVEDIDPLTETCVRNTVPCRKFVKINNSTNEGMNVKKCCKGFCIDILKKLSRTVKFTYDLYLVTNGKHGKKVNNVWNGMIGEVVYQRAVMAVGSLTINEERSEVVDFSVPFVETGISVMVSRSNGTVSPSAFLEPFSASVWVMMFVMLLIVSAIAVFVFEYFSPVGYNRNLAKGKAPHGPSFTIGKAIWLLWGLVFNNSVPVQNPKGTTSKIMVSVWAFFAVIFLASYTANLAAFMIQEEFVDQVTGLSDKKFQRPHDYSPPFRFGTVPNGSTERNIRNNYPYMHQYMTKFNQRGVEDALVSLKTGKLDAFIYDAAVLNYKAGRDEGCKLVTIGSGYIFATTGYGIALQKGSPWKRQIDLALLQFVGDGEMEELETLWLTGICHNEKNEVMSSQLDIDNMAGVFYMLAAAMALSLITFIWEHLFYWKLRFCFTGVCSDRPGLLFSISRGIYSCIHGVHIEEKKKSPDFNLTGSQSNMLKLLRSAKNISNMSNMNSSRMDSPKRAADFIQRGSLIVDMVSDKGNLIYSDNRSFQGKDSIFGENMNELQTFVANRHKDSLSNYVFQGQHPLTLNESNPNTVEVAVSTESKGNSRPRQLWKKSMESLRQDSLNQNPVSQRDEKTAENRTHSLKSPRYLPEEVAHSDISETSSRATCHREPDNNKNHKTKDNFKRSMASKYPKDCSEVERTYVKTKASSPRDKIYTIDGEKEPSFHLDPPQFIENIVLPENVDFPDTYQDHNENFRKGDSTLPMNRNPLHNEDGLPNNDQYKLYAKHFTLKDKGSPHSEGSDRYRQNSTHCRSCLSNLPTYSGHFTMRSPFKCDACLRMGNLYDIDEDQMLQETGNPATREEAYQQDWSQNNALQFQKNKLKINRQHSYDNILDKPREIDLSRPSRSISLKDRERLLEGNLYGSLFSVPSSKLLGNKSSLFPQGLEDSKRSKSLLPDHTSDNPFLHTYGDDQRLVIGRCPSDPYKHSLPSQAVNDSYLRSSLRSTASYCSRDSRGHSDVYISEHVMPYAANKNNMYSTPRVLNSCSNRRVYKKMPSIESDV
T1 sequence (Q01097 27-1482, other chains not shown): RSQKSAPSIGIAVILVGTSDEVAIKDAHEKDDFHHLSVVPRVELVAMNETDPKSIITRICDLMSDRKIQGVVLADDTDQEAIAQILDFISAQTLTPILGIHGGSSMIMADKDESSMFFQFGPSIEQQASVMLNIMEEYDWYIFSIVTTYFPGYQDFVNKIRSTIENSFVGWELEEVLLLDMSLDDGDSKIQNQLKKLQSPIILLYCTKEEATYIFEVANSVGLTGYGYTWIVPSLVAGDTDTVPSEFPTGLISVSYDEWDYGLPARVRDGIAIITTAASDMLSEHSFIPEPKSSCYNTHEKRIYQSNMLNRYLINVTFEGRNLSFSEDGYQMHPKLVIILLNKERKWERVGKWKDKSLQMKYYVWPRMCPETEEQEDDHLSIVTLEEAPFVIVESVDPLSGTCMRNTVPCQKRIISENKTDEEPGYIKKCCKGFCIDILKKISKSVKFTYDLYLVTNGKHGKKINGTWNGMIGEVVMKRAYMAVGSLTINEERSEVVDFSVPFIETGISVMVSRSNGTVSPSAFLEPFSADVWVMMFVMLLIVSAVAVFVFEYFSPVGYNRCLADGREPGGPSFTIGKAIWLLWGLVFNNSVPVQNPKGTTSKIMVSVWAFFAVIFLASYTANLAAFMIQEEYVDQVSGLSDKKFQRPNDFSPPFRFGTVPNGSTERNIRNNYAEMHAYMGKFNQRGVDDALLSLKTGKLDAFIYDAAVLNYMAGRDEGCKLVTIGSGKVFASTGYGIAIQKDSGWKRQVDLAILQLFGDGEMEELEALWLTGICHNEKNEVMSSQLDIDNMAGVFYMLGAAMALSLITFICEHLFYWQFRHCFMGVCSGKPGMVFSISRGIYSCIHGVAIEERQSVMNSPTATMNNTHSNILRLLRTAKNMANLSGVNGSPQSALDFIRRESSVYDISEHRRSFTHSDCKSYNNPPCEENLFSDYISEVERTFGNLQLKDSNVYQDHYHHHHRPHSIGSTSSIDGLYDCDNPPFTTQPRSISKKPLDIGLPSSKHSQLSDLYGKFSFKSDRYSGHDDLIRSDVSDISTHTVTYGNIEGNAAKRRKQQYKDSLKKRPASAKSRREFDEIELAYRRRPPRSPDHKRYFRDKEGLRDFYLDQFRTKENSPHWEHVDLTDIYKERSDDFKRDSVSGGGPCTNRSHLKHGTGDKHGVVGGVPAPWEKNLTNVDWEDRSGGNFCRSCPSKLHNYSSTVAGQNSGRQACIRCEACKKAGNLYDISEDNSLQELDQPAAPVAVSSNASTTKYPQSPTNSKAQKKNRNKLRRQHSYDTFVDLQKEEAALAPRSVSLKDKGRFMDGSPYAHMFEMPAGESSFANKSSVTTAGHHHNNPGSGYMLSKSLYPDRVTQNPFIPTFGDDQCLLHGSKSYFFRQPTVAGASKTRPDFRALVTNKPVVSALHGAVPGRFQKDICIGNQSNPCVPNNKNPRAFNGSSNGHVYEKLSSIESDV
Chain of ε4/.zeta.1 heteromeric NMDA receptor channel (Q03391 28-1323, other chains not shown): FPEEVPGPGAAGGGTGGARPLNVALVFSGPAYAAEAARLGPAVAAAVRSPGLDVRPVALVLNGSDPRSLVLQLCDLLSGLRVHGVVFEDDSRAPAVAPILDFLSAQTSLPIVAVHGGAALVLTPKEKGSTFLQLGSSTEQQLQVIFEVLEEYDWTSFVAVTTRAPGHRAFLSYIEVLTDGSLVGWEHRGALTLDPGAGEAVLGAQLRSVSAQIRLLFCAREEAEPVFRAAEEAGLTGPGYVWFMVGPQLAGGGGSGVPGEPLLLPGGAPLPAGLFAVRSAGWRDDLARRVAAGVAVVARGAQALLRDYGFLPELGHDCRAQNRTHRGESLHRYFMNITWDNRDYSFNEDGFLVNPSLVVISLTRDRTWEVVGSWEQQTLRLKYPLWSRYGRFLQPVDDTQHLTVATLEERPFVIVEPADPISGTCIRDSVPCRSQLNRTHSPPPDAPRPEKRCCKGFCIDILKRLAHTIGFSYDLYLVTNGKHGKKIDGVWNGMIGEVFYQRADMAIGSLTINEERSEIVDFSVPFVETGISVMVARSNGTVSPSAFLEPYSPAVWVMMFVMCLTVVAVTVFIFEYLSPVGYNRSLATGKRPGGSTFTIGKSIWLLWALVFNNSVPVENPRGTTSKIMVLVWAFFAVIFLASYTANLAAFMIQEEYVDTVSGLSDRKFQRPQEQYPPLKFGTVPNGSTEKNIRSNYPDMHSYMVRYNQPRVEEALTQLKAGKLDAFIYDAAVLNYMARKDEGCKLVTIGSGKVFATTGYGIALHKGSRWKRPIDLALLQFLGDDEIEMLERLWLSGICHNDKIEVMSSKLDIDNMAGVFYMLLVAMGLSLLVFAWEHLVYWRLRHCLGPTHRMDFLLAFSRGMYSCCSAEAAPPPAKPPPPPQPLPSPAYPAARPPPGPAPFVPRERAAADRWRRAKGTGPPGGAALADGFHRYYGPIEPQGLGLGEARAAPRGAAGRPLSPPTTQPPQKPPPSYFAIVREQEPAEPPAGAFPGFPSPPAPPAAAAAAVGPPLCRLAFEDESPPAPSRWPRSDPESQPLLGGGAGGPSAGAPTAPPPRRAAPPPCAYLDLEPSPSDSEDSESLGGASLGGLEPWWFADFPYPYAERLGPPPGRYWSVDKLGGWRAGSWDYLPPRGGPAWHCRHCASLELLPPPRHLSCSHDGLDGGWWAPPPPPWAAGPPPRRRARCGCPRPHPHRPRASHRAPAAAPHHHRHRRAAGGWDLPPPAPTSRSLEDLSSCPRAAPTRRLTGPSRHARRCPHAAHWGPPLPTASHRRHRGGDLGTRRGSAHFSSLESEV
Procedure for ε1 subunit: One or both of ε1 subunit-specific mRNAs and .zeta.1.NMDA type glutamate receptor subunit-specific mRNAs (mRNAs derived from mice, coding an amino acid sequence different in the 213rd (Glu→Asp) and the 460th (Ile→Val) from the N terminal end from the amino acid sequence which is coded by cDNA.-NMDA R1 of a rat-NMDA type glutamate receptor cloned by Nakanishi et al. ("Nature", 354, pp. 31 to 37 (1991))) were injected into Xenopus oocytes.
The oocytes used were obtained from mature female Xenopus and separated into one oocyte in a Barth medium by using sharp tweezers and scissors. The concentration of the mRNAs was 0.1 μg/μl and 10 μl thereof was injected into about 100 oocytes in an amount of 50 to 100 nl per one oocyte. The mRNAs were injected under a microscope by using a capillary and a micromanipulator. After the injection, the oocytes were incubated at 19° C. for one day in a Barth medium containing 0.1 mg/ml of gentamicin ("The Control of Gene Expression in Animal Development, Clarendon, Oxford (1974)). […]
as §7
Procedure for ε2 subunit: as §6
(§8) The electrophysiological test was carried out by a conventional micropipet voltage clamp method. Oocytes generally have a membrane potential of about -30 to -40 mV. […] In the present experiment system, flow of these ions were detected, and opening and closing of the ion channel were observed. […]
Procedure for ε3 subunit: as §6, §8

On to `N[C@@H](CC(=O)O)C(=O)O` [L-aspartic acid], for which the “response to agonist alone” value in assay [1] was “showed a response”.

As a reminder, the EC50 is the concentration at which the effect is half-maximal. On to `N[C@@H](CCC(=O)O)C(=O)O` [L-glutamate], for which the midpoint of the response in [2], the EC50, lay at 1700 nM. The “response of oocytes injected singly” value in the assay on ε2 subunit and in the assay with ε3 subunit was less than 1 nA each time.

Turning to `C[C@]12N[C@H](Cc3ccccc31)c1ccccc12` [(+)-MK-801], the “effect on response to 10 μM L-glutamate and 10 μM glycine” value in assay [1] and in assay [3] was “suppressed” in each case. For the same compound, the “inhibition of current response” value was “strongly inhibited” in assay [1] and “suppressed effectively” in assay [4] (1 mM Mg^2+, 100 μM Zn^2+, 1 μM (+)-MK-801, frog standard Ringer's, -70 mV, 10 μM L-glutamate + 10 μM glycine). Also, the “suppression after repetitive application” value is given as “suppressed almost completely” in [1], “strongly inhibited” in [4] (setting [11]), “strongly inhibited” in assay [5] (setting [11]) and “retained high activities” in assay [6] ((+)-MK-801 applied three times repeatedly). Besides, in assay [5] (Mg^2+, Zn^2+, repetitive (+)-MK-801, frog standard Ringer's, -70 mV, 10 μM L-glutamate + 10 μM glycine), the “sensitivity to inhibition / current response” value is recorded as “showed a great current response after repetitive application of (+)-MK-801”. For the same compound, in assay [6] (Mg^2+, Zn^2+, (+)-MK-801, frog standard Ringer's, -70 mV, 10 μM L-glutamate + 10 μM glycine), the “resistance / sensitivity to inhibition” value was “strong resistance”.

Consider `O=C(O)c1cc(O)c2ccc(Cl)cc2n1` [7 CK, 7-chlorokynurenate], for which the “effect on response to 10 μM L-glutamate and 10 μM glycine” value in assay [1] is “suppressed”; in assay [3] (competitive antagonists, 100 μM Mg^2+, 100 μM Zn^2+, 1 μM (+)-MK-801), “suppressed”; in assay [7] (500 μM APV or 100 μM 7 CK), “suppressed”. Further, the “effect on response to 10 μM L-glutamate or 10 μM glycine alone” value in assay [1] is reported as “disappeared”; in [3] (100 μM APV, 30 μM 7 CK), “disappeared”. In assay [7] (100 μM APV or 3 μM 7 CK, response to 4.7 μM L-glutamate + 0.9 μM glycine, Ba^2+ Ringer's solution, -70 mV), the “decrease of channel activity” value is reported as 34%. The degree of inhibition entry in assay [7] (compared with other ε/.xi. channels under the same conditions) is “smaller than those of the other ε/.xi. channels”. Also, the “order of strength in sensitivity to competitive antagonist” value in assay [8] was “ε3/.xi.1>ε2/.xi.1>ε1/.xi.1”. The “order of sensitivity to competitive antagonist” value in assay [9] (10-fold concentration of EC50 value) was “ε3/.xi.1>ε2/.xi.1>ε1/.xi.1=ε4/.xi.1”.

On to `CN[C@H](CC(=O)O)C(=O)O` [NMDA, N-methyl-D-aspartic acid], for which the current amplitude in assay [2] (100 μM NMDA and 10 μM glycine, Ba^2+ Ringer's solution, n=7) is listed as 57±3 nA; in assay [10] (Ba^2+ Ringer's solution), 1±0.2 nA; in [10] (Example 1, frog standard Ringer's solution, -70 mV), 6±1 nA; in [10] (Example 2), 9±2 nA; in [10] (Example 3), 13±2 nA. In addition, the inward current in [2] (100 μM NMDA and 10 μM glycine, frog standard Ringer's solution, -70 mV, n=7) was 175±30 nA; in [1] it was 546±172 nA; in assay [3], 89±22 nA; in assay [7] (100 μM NMDA and 10 μM glycine, frog standard Ringer's solution, -70 mV, n=8) it was 68±13 nA. Further, the “reaction of injected oocytes” value in the assay with ε1 subunit was “did not show any reaction”. In addition, the “response of oocytes injected singly” value in the assay with ε2 subunit and in the assay with ε3 subunit was less than 1 nA throughout.

Consider `C=C(C)[C@H]1CN[C@H](C(=O)O)[C@H]1CC(=O)O` [kainate], for which the “response to kainate / AMPA” value in assay [1] and in assay [3] was “less than the measurement limit” each time.

In the case of `Cc1onc(O)c1CC(N)C(=O)O` (centres unmarked) [AMPA], the “response to kainate / AMPA” value in [1] and in assay [3] was “less than the measurement limit” in each case.

A word on the Hill coefficient: it is the slope factor of the fitted curve. Consider `NCC(=O)O` [glycine], for which the half-maximal effective concentration (EC50) in assay [2] (Ba^2+ Ringer's solution, dose-reaction curve, read-out: EC50) amounted to 2100 nM; in assay [1] (setting [12]) it was 300 nM; in [3] (setting [12]), 200 nM; in assay [7], 90 nM. The “response to agonist alone” value is on record as “showed a response” in [1] and “showed a response only to 10 μM glycine” in [3]. Further, the Hill coefficient in assay [7] (Ba^2+ Ringer's solution, -70 mV) was 1.2. Further, the “order of strength in affinity to agonist” value in [9] (Ba^2+ Ringer's solution) was “ε4/.xi.1>ε3/.xi.1>ε2/.xi.1”.
